Reference: patent US11325938B2, “CD73 inhibitors” (ORIC Pharmaceuticals, Inc., priority 2018, dated 2022)

Target: CD73 (Homo sapiens (Human), UniProt P21589)
Experiment: Biochemical assay: inhibition of CD73 activity (AMP hydrolysis, Malachite Green readout)
Conditions: CD73 0.3208 nM, AMP 15 μM, 25 mM Tris-HCl pH 7.4, RT, absorbance 620 nm
Experimental: Example A1: Biochemical Assay
Assay Reaction Conditions
• Assay Volume: 70 μl • Reaction Volume: 50 μl • CD73: 0.3208 nM • AMP: 15 μM • Assay Buffer: 25 mM Tris-HCL, pH 7.4, 0.01% Brij-35, 0.01% BSA, 5 mM MgCl2 Assay Procedure:
Made dose titration of testing compounds in assay buffer, 10 points ½ log titrations in duplicates starting at 100 μM.
Added 25 μl of CD73 to each well for a final concentration of 320 pM.
Incubated at RT for 15 min.
Added 25 μl of AMP to each well for a final concentration of 15 μM.
Incubated at RT for 10 min.
Added 10 μl of Malachite Green Reagent A, incubate at RT for 10 min.
Added 10 of Malachite Green Reagent B, incubate at RT for 45 min.
Read the Absorbance on Envision plate reader using excitation filter: Cy5 […].
The ability of the compounds disclosed herein to inhibit CD73 activity was quantified and the respective IC50 values were determined. Table 2 provides the biochemical IC50 values of compounds disclosed herein.

Sequence of CD73 (P21589 27-574): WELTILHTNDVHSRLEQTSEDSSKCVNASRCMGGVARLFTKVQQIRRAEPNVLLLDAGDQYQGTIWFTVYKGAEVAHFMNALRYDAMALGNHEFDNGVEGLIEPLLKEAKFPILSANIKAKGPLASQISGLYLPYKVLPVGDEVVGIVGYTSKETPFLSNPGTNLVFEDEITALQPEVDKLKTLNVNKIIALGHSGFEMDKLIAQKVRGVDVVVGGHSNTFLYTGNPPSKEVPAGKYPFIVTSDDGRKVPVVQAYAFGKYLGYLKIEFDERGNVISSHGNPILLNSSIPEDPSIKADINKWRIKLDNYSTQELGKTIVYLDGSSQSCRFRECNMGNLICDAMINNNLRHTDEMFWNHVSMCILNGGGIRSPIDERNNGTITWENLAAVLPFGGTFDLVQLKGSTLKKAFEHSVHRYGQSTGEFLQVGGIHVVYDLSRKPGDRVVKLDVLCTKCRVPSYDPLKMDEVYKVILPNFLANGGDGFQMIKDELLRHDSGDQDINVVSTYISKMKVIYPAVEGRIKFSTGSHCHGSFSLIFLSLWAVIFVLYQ

Compound	IC50 [nM]
CS(=O)(=O)C(OC[C@H]1O[C@@H](n2ncc3c(NC4CCCC4)nc(Cl)nc32)[C@H](O)[C@@H]1O)P(=O)(O)O (stereo partly drawn) [Example 38, ((((2R,3S,4R,5R)-5-(6-chloro-4-(cyclopentylamino)-1H-pyrazolo[3,4-d]pyrimidin-1-yl)-3,4-dihydroxytetrahydrofuran-2-yl)methoxy)(methylsulfonyl)methyl)phosphonic acid]	100 to 1000
C[C@@H](O)COc1nc(NC2CCCC2)c2cnn([C@@H]3O[C@H](COC(CO)(CO)P(=O)(O)O)[C@@H](O)[C@H]3O)c2n1 (racemic) [Example 191, rac-(2-(((2R,3S,4R,5R)-5-(4-(cyclopentylamino)-6-((R)-2-hydroxypropoxy)-1H-pyrazolo[3,4-d]pyrimidin-1-yl)-3,4-dihydroxytetrahydrofuran-2-yl)methoxy)-1,3-dihydroxypropan-2-yl)phosphonic acid]	≤ 100
O=P(O)(O)CS(=O)(=O)C[C@H]1O[C@@H](n2ncc3c(NC4CCCC4)cc(Cl)nc32)[C@H](O)[C@@H]1O [Example 162, (((((2S,3S,4R,5R)-5-(6-chloro-4-(cyclopentylamino)-1H-pyrazolo[3,4-b]pyridin-1-yl)-3,4-dihydroxytetrahydrofuran-2-yl)methyl)sulfonyl)methyl)phosphonic acid]	≤ 100
COC[C@@H](OC[C@H]1O[C@@H](n2nnc3c(NC4CCCC4)cc(Cl)nc32)[C@H](O)[C@@H]1O)P(=O)(O)O [Example 161, ((S)-1-(((2R,3S,4R,5R)-5-(5-chloro-7-(cyclopentylamino)-3H-[1,2,3]triazolo[4,5-b]pyridin-3-yl)-3,4-dihydroxytetrahydrofuran-2-yl)methoxy)-2-methoxyethyl)phosphonic acid]	≤ 100
C[C@@](CO)(OC[C@H]1O[C@@H](n2ncc3c(NC4CCCC4)nc(Cl)nc32)[C@H](O)[C@@H]1O)P(=O)(O)O [Example 63, ((R)-2-(((2R,3S,4R,5R)-5-(6-chloro-4-(cyclopentylamino)-1H-pyrazolo[3,4-d]pyrimidin-1-yl)-3,4-dihydroxytetrahydrofuran-2-yl)methoxy)-1-hydroxypropan-2-yl)phosphonic acid]	≤ 100
CC(C)(O)C#Cc1nc(NC2CCCC2)c2cnn([C@@H]3O[C@H](COC(C)(CO)P(=O)(O)O)[C@@H](O)[C@H]3O)c2n1 (mixture of isomers) [Example 192, rac-(2-(((2R,3S,4R,5R)-5-(4-(cyclopentylamino)-6-(3-hydroxy-3-methylbut-1-yn-1-yl)-1H-pyrazolo[3,4-d]pyrimidin-1-yl)-3,4-dihydroxytetrahydrofuran-2-yl)methoxy)-1-hydroxypropan-2-yl)phosphonic acid]	≤ 100
CCP(=O)(O)C(CO)(CO)OC[C@H]1O[C@@H](n2ncc3c(NC4CCCC4)nc(Cl)nc32)[C@H](O)[C@@H]1O [Example 112, (2-(((2R,3S,4R,5R)-5-(6-chloro-4-(cyclopentylamino)-1H-pyrazolo[3,4-d]pyrimidin-1-yl)-3,4-dihydroxytetrahydrofuran-2-yl)methoxy)-1,3-dihydroxypropan-2-yl)(ethyl)phosphinic acid]	100 to 1000
NC(=O)OC[C@@](CO)(OC[C@H]1O[C@@H](n2ncc3c(NC4CCCC4)nc(Cl)nc32)[C@H](O)[C@@H]1O)P(=O)(O)O (racemic) [Example 215, rac-((R)-1-(carbamoyloxy)-2-(((2S,3R,4S,5S)-5-(6-chloro-4-(cyclopentylamino)-1H-pyrazolo[3,4-d]pyrimidin-1-yl)-3,4-dihydroxytetrahydrofuran-2-yl)methoxy)-3-hydroxypropan-2-yl)phosphonic acid]	≤ 100
O=P(O)(O)CS(=O)(=O)C[C@H]1O[C@@H](n2nnc3c(N[C@@H]4CCc5ccccc54)cc(Cl)nc32)[C@H](O)[C@@H]1O [Example 83]	≤ 100

Other lines, results leading:

IC50 [nM]	Compound
≤ 100	COC[C@@](C)(OC[C@H]1O[C@@H](n2nnc3c(NC4CCCC4)nc(Cl)nc32)[C@H](O)[C@@H]1O)P(=O)(O)O [Example 109, ((S)-2-(((2R,3S,4R,5R)-5-(5-chloro-7-(cyclopentylamino)-3H-[1,2,3]triazolo[4,5-d]pyrimidin-3-yl)-3,4-dihydroxytetrahydrofuran-2-yl)methoxy)-1-methoxypropan-2-yl)phosphonic acid]
≤ 100	CC1(Nc2nc(Cl)nc3c2cnn3[C@@H]2O[C@H](CO[C@@](C)(CO)P(=O)(O)O)[C@@H](O)[C@H]2O)CCCC1 [Example 105, ((R)-2-(((2R,3S,4R,5R)-5-(6-chloro-4-((1-methylcyclopentyl)amino)-1H-pyrazolo[3,4-d]pyrimidin-1-yl)-3,4-dihydroxytetrahydrofuran-2-yl)methoxy)-1-hydroxypropan-2-yl)phosphonic acid]
≤ 100	O=P(O)(O)C(CO)OC[C@H]1O[C@@H](n2ncc3c(N[C@H]4CCc5ccccc54)nc(Cl)nc32)[C@H](O)[C@@H]1O (stereo partly drawn) [Example 39, (1-(((2R,3S,4R,5R)-5-(6-chloro-4-(((S)-2,3-dihydro-1H-inden-1-yl)amino)-1H-pyrazolo[3,4-d]pyrimidin-1-yl)-3,4-dihydroxytetrahydrofuran-2-yl)methoxy)-2-hydroxyethyl)phosphonic acid]
≤ 100	O=P(O)(O)C(CO)(Cc1nn[nH]n1)OC[C@H]1O[C@@H](n2ncc3c(NC4CCCC4)nc(Cl)nc32)[C@H](O)[C@@H]1O (stereo partly drawn) [Example 84, (2-(((2R,3S,4R,5R)-5-(6-Chloro-4-(cyclopentylamino)-1H-pyrazolo[3,4-d]pyrimidin-1-yl)-3,4-dihydroxytetrahydrofuran-2-yl)methoxy)-1-hydroxy-3-(2H-tetrazol-5-yl)propan-2-yl)phosphonic acid]
≤ 100	CCOCC(CO)(OC[C@H]1O[C@@H](n2ncc3c(NC4CCCC4)nc(Cl)nc32)[C@H](O)[C@@H]1O)P(=O)(O)O (mixture of isomers) [Example 169, rac-(2-(((2R,3S,4R,5R)-5-(6-chloro-4-(cyclopentylamino)-1H-pyrazolo[3,4-d]pyrimidin-1-yl)-3,4-dihydroxytetrahydrofuran-2-yl)methoxy)-1-ethoxy-3-hydroxypropan-2-yl)phosphonic acid]
≤ 100	CCS(=O)(=O)C[C@@](C)(OC[C@H]1O[C@@H](n2ncc3c(NC4CCCC4)nc(Cl)nc32)[C@H](O)[C@@H]1O)P(=O)(O)O [Example 138, ((S)-2-(((2R,3S,4R,5R)-5-(6-chloro-4-(cyclopentylamino)-1H-pyrazolo[3,4-d]pyrimidin-1-yl)-3,4-dihydroxytetrahydrofuran-2-yl)methoxy)-1-(ethylsulfonyl)propan-2-yl)phosphonic acid]
≤ 100	C[C@](CO)(OC[C@H]1O[C@@H](n2ncc3c(NC4CCCC4)cc(Cl)nc32)[C@H](O)[C@@H]1O)P(=O)(O)O (racemic) [Example 193, rac-((R)-2-(((2S,3R,4S,5S)-5-(6-chloro-4-(cyclopentylamino)-1H-pyrazolo[3,4-b]pyridin-1-yl)-3,4-dihydroxytetrahydrofuran-2-yl)methoxy)-1-hydroxypropan-2-yl)phosphonic acid]
≤ 100	COCC(CC(=O)O)(OC[C@H]1O[C@@H](n2ncc3c(NC4CCCC4)nc(Cl)nc32)[C@H](O)[C@@H]1O)P(=O)(O)O (mixture of isomers) [Example 210, rac-3-(((2R,3S,4R,5R)-5-(6-chloro-4-(cyclopentyalmino)-1H-pyrazolo[3,4-d]pyrimidin-1-yl)-3,4-dihydroxytetrahydrofuran-2-yl)methoxy)-4-methoxy-3-phosphonobutanoic acid]
